# Results taken from article PMC8043206 (ACS Pharmacology & Translational Science, 2021).
# Test system: SARS-CoV-2-S pseudotyped particles
# Type: cell-based
# Conditions: Calu-3 cells
row,SMILES,Activity on viral entry in PP entry assay (in words)
1,"CN(C)C(=O)COC(=O)Cc1ccc(OC(=O)c2ccc(NC(=N)N)cc2)cc1 [NCGC00167526, Camostat]",high potency and efficacy
2,"N=C(N)c1ccc2cc(OC(=O)c3ccc(N=C(N)N)cc3)ccc2c1 [NCGC00160398, Nafamostat]",high potency and efficacy
3,"C=Cc1cc(C(=O)Nc2ccc(C(=N)N)cc2)c(-c2ccc(C(=O)NCC3CC3)nc2C(=O)O)cc1OC [NCGC00522636, Avoralstat]",comparable inhibition activity to camostat
4,"CCOC(=O)c1ccc(OC(=O)CCCCCNC(=N)N)cc1 [NCGC00025297, Gabexate]",did not exhibit an activity
5,"COC(=O)[C@H](Cc1cccc(C(=N)N)c1)[C@@H](C)NC(=O)c1ccc(-c2cc[n+]([O-])cc2)cc1 [NCGC00378763, Otamixaban]",efficient activity
